Measured values reported in PMC11094368, “Modulating mycobacterial envelope integrity for antibiotic synergy with benzothiazoles” (Life Science Alliance, 2024).

Tests used:
Test in all cases: microbe, parasite or virus in culture
[1] = test system: T1, Mycobacterium abscessus RIVM; set-up: resazurin microtiter plate assay (REMA), growth inhibition in 7H9 ADS glycerol tyloxapol; settings: Mycobacteroides abscessus, 48 h, read-out: MIC50
T1 construct: RIVM

[2] = test system: T2, Mycobacterium abscessus 144C; set-up: resazurin microtiter plate assay (REMA), growth inhibition in 7H9 ADS glycerol tyloxapol; settings: Mycobacteroides abscessus, 144C, 48 h, read-out: MIC50
T2 construct: 144C

[3] = test system: T3, Escherichia coli K12; set-up: species or system E. coli, B. subtilis, K. pneumoniae, A. baumannii; bacterial growth inhibition in LB, twofold dilutions, OD600 tracking; settings: Escherichia coli, K12, read-out: MIC50
T3 construct: K12

[4] = test system: T4, Acinetobacter baumannii 1757; set-up: species or system E. coli, B. subtilis, K. pneumoniae, A. baumannii; bacterial growth inhibition in LB, twofold dilutions, OD600 tracking; settings: Acinetobacter baumannii, 1757, read-out: MIC50
T4 construct: 1757

[5] = test system: T5, Klebsiella pneumoniae LMG20218; set-up: species or system E. coli, B. subtilis, K. pneumoniae, A. baumannii; bacterial growth inhibition in LB, twofold dilutions, OD600 tracking; settings: Klebsiella pneumoniae, LMG20218, read-out: MIC50
T5 construct: LMG20218

[6] = test system: T6, Acinetobacter baumannii LMG01041; set-up: species or system E. coli, B. subtilis, K. pneumoniae, A. baumannii; bacterial growth inhibition in LB, twofold dilutions, OD600 tracking; settings: Acinetobacter baumannii, LMG01041, read-out: MIC50
T6 construct: LMG01041

[7] = test system: T7, Bacillus subtilis 168; set-up: species or system E. coli, B. subtilis, K. pneumoniae, A. baumannii; bacterial growth inhibition in LB, twofold dilutions, OD600 tracking; settings: Bacillus subtilis, 168, read-out: MIC50
T7 construct: 168

[8] = test system: T8, Mycobacterium smegmatis MC^2-155; set-up: resazurin microtiter plate assay (REMA), growth inhibition in 7H9 ADS glycerol tyloxapol; settings: Mycolicibacterium smegmatis, 24 h, read-out: MIC50
T8 construct: MC2-155

[9] = test system: T9, M. marinum; set-up: Resazurin microtiter plate assay (REMA), fluorescence; MIC90 growth inhibition in HdB medium with Tween-80, 30 °C; settings: Mycobacterium marinum, 96 h; MIC90, HdB medium with Tween-80
T9 construct: M^USA (wild type)
Protocol: The resazurin microtiter plate assay (REMA) was used to determine minimal inhibitory concentrations (MIC) of the compound toward mycobacterial species ([Palomino et al, 2002]). Selected compounds or antibiotics were diluted in the bacterial growth medium as twofold serial dilutions in a 96-well plate. Bacteria were routinely grown until the mid-logarithmic phase, harvested by centrifugation (3,000g, 10 min), washed in PBS supplemented with 0.02% tyloxapol, resuspended in the growth medium, and added to the well plate containing compound dilutions, to achieve the final OD600 of 0.001 per well. […] When the color conversion of the dye was observed, the fluorescence was measured using a BioTek plate reader (Synergy H1), bottom reading mode, and excitation 560 nm/emission 590 nm. The MIC of compounds toward E. coli, Bacillus subtilis, K. pneumoniae, and A. baumannii was determined by tracking changes in the OD600. […] Plates were sealed and incubated at 37°C with 3 mm continuous linear shaking in a BioTek plate reader (Synergy H1), and the bacterial growth was tracked by measuring the OD600 every 15 min. […] Thus, we evaluated compounds from the benzothiazole library for their in vitro activity using the HdB medium with Tween-80 by REMA (Table S6).

Row | SMILES | IC50 [1] [µM] | IC50 [2] [µM] | IC50 [3] [µM] | IC50 [4] [µM] | IC50 [5] [µM] | IC50 [6] [µM] | IC50 [7] [µM] | IC50 [8] [µM] | MIC90 [9] [µM]
1 | CCOc1ccc2nc(N(Cc3ccccc3)C(C)=O)sc2c1 [BT-08, N-Benzyl-N-(6-ethoxybenzo[d]thiazol-2-yl)acetamide] | > 40 | > 40 | > 40 | > 40 | > 40 | > 40 | > 40 | – | –
2 | CCOc1ccc2nc(N(Cc3ccccc3OC)C(C)=O)sc2c1 [BT-37] | > 40 | > 40 | > 40 | > 40 | > 40 | > 40 | > 40 | > 40 | 0.3
